Laboratory results taken from patent publication US6602881B2, “Anti-inflammatory uses of manzamines” (priority 1999, dated 2003).

Assays:
Format in all cases: cell-based
[1] = system: LPS activated BMΦ (rat microglia); assay: Assay for BMΦ O2− generation (SOD-inhibitable reduction of ferricytochrome C), PMA-stimulated, LPS-activated BMΦ; conditions: PMA (1 μM)-stimulated O2− release from LPS (0.3 ng/ml, 17 h)-activated rat BMΦ, manzamine 20 min preincubation + 70 min
Procedure: (§1) Isolation and culture of rat BMΦ. Briefly to prepare primary BMΦ cultures, cerebral cortices from 1-2-day-old Sprague-Dawley rats (Harlan, Indianapolis, Ind.) were placed in cold DMEM+10% heat-inactivated FBS+120 U/ml P and 12 μg/ml S, meninges carefully removed, brain tissue minced and dissociated with trypsin-EDTA at 37° C. for 3-5 minutes. The mixed glial cell suspension was plated in either 75 or 162 cm^2 culture flasks with DMEM containing 10% heat-inactivated FBS+120 U/ml P and 12 μg/ml S and grown in a humidified 5% CO2 incubator at 37° C. On day 7 of culture, flasks were shaken (90 rpm, 20 min, 37° C.) and media exchanged. On day 14 and every 3-4 days thereafter, BMΦ were detached using an orbital shaker (200 rpm, 2 hours, 37° C., 5% CO2), then centrifuged (450×g, 25 min, 4° C.). The pellet containing BMΦ was resuspended gently with cold DMEM, cell number and viability assessed by trypan blue exclusion. Purified BMΦ obtained by our method averaged>than 95% viability. Microglia were characterized as previously described (Mayer et al., 1999, supra).
Assay for BMΦ O2^− generation. BMΦ O2^− generation was determined by the superoxide dismutase(SOD)-inhibitable reduction of ferricytochrome C(FCC) (Mayer et al., 1999, supra). Briefly, spontaneous O2^− release from unstimulated BMΦ was measured in the presence of FCC (50 μM) and HBSS with or without SOD (700 units). To determine PMA-stimulated O2^− release, BMΦ containing wells received FCC, HBSS and PMA [1 μM] with or without SOD which inhibited>95% of FCC reduction. All experimental treatments were run in triplicate and in a final volume of 1 ml. Changes in absorbance of BMΦ supernatants were measured at 550 nm using a Beckman DU-650 Spectrophotometer. Differences in the amount of reduced FCC in the presence or absence of SOD were used to determine BMΦ O2^− generation by employing the molecular extinction coefficient of 21.0×10^3 M^−1 cm^−1.
(§2) To establish the effect of Manzamine A, B, C, D, E and F on BMΦ O2^−, TXB2, and LDH generation the following procedure was used:
(§3) (1) 2-5×10^5 BMΦ were seeded into each well of 24-well flat-bottom culture clusters.
(§4) (2) 1 ml of DMEM+10% heat-inactivated FBS+120 U/ml P and 12 μg/ml S were added.
(§5) (3) BMΦ were allowed to attach for 2 hours, at 37° C., 5% CO2, and monolayers then washed 3 times with 1 ml warm (37° C.) DMEM+10% heat-inactivated FBS+120 U/ml P and 12 μg/ml S were added.
(§6) (4) 1 ml of DMEM+10% heat-inactivated FBS+120 U/ml P and 12 μg/ml S were added.
(§7) (5) Then, LPS (0.3 ng/ml final concentration) was added to each well.
(§8) (6) BMΦ were then incubated for 17 hours in a humidified 5% CO2 incubator at 37° C.
(§9) (7) Thereafter, the media was removed from each tissue culture well and discarded.
(§10) (8) BMΦ monolayers were washed 3 times with 1 ml warm (37° C.) HBSS.
(§11) To study the effect of Manzamines A, B, C, D, E and F on PMA-stimulated release of O2^− and TXB2 from BMΦ activated with LPS as described in (A) we proceeded as follows.
(§12) (1) Add HBSS, Manzamines A, or B, or C, or D, or E, or F, DMSO and Triton X-100 1% to the tissue culture wells containing LPS-activated BMΦ, as shown in Table 1.
(§13) (2) Incubate the tissue culture plates for 20 minutes in a humidified 5% CO2 incubator at 37° C.
(§14) (3) Remove the tissue culture plates from the incubator and return to laminar flow hood.
(§15) (4) Incubate tissue culture plates for an additional 70 minutes in CO2 incubator at 37° C.
(5) When incubation is complete, aspirate BMΦ supernates from each well (1 ml), and place in a 1.5 ml microcuvette. Proceed to reach absorbance as indicated above in Assay for BMΦ O2^− generation.

[2] = system: LPS activated BMΦ (rat microglia); assay: Assay for BMΦ thromboxane B2 (TXB2) generation (immunoassay), PMA-stimulated, LPS-activated BMΦ; conditions: PMA (1 μM)-stimulated TXB2 release from LPS (0.3 ng/ml, 17 h)-activated rat BMΦ, manzamine 20 min preincubation + 70 min
Procedure: as §1
Assay for BMΦ thromboxane B2 (TXB2) generation. Following stimulation with PMA, TXB2 generation in the BMΦ culture supernatants was measured using immunoassays (Cayman Chemical, Ann Arbor, Mich.) as indicated by the manufacturer's protocol (Mayer, et al., 1999, supra).
as §2, §3, §4, §5, §6, §7, §8, §9, §10, §11, §12, §13, §14, §15
(§16) (6) Once (5) is completed use the same BMΦ supernates to determine both LDH and TXB2 as described above in Assay for BMΦ TXB2 generation and LDH assay.

[3] = molecular target: LPS activated BMΦ (rat microglia); assay: LDH assay (lactate dehydrogenase release, BMΦ viability); conditions: LDH release (toxicity) from LPS-activated rat BMΦ, same supernates
Procedure: as §1
LDH assay. To assess BMΦ viability following incubation with vehicle (DMSO) or the manzamines, lactate dehydrogenase (LDH) release was determined spectrophotometrically as previously described (Mayer et al., 1999, supra).
as §2, §3, §4, §5, §6, §7, §8, §9, §10, §11, §12, §13, §14, §15, §16

Row | Compound | IC50 [1] | IC50 [2] | IC50 [3] | IC50 ([1]; Microglia) | IC50 ([2]; Microglia) | IC50 ([3]; Microglia)
1 | O[C@]12C=C(c3nccc4c3[nH]c3ccccc34)[C@@H]3CCN(CCCC/C=C\CC1)C[C@@]31C[C@@H]3/C=C\CCCCN3[C@H]12 [Manzamine A, manzamine A] | 0.1 µM | < 0.1 µM | > 30 µM |  |  | 
2 | C1=C\CC[C@]23CN4CCCC/C=C\CC[C@@]5(OC5[C@@H](c5nccc6c5[nH]c5ccccc56)[C@@H]2CC4)[C@@H]3NCCCC/1 (some centres unmarked) [Manzamine B, manzamine B] |  |  |  | ~5 µM | ~3 µM | ~3 µM
3 | C1=C\CCCCN(CCc2nccc3c2[nH]c2ccccc23)CCCC/1 [Manzamine C, manzamine C] |  |  |  | ~5 µM | ~5 µM | ~5 µM
4 | O[C@]12C=C(C3NCCc4c3[nH]c3ccccc43)[C@@H]3CCN(CCCC/C=C\CC1)C[C@@]31CC3/C=C\CCCCN3[C@H]12 (some centres unmarked) [Manzamine D, manzamine D] |  |  |  | ~0.5 µM | ~0.3 µM | ~0.5 µM
5 | O=C1CCCN2C(CC1)C[C@]13CN4CCCC/C=C\CC[C@](O)(C=C(c5nccc6c5[nH]c5ccccc56)[C@@H]1CC4)[C@H]23 (some centres unmarked) [Manzamine E, manzamine E] |  |  |  | > 10 µM |  | > 10 µM
6 | O=C1CCCN2[C@@H](CC1)C[C@]13CN4CCCC/C=C\CC[C@](O)(C=C(c5nccc6c5[nH]c5c(O)cccc56)C1CC4)[C@H]23 (some centres unmarked) [Manzamine F, manzamine F] |  |  |  | > 10 µM | > 10 µM | > 10 µM
